Biological target: T1, human RORgT (Homo sapiens, UniProt P51449)
T1 construct: expressed in transfected cells
T1 sequence (P51449 267-516): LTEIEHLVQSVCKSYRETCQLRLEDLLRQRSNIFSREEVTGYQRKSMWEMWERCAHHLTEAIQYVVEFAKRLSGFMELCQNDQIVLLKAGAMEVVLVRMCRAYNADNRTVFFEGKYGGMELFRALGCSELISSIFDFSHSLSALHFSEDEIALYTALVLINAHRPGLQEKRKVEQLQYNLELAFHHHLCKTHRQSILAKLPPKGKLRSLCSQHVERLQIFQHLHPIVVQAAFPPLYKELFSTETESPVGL
Assay: RORgT Gal4 Luciferase Reporter Gene Assay
Type: cell-based
Details: engineered Jurkat cells overexpressing RORgT (LBD or full length) fused with Gal4 Luc reporter; 18 hours at 37° C.; luminescence
How it was run: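 Jurkat cells expressing Gal4 Luc with either RORgT LBD (aa267-516) or full-length human RORgT, 10,000 cells/well, treated with compound (40 µM to 0.67 nM final, 3-fold dilutions) for 18 h at 37° C. Steady-Glo luminescence read; inhibition of constitutive activity as % signal-window reduction relative to a control compound.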

Structure (SMILES)	EC50 [nM]
COC(=O)[C@H]1CC[C@H](C(=O)N2CC[C@@]3(S(=O)(=O)c4ccc(F)cc4)c4ccc(OCc5c(F)cccc5C(F)(F)F)cc4CC[C@@H]23)CC1 [Example 183, methyl (1r,4r)-4-[(3aR,9bR)-7-{[2-fluoro-6-(trifluoromethyl)phenyl]methoxy}-9b-(4-fluorobenzenesulfonyl)-1H,2H,3H,3aH,4H,5H,9bH-benzo[e]indole-3-carbonyl]cyclohexane-1-carboxylate]	48
CN1CCC(C(=O)N2CC[C@@]3(S(=O)(=O)c4ccc(F)cc4)c4ccc(OCc5c(F)cccc5C(F)(F)F)cc4CC[C@@H]23)CC1 [Example 184, 4-[(3aR,9bR)-7-{[2-fluoro-6-(trifluoromethyl)phenyl]methoxy}-9b-(4-fluorobenzenesulfonyl)-1H,2H,3H,3aH,4H,5H,9bH-benzo[e]indole-3-carbonyl]-1-methylpiperidine]	68
NS(=O)(=O)CC(=O)N1CC[C@@]2(S(=O)(=O)c3ccc(F)cc3)c3ccc(OCc4c(F)cccc4C(F)(F)F)cc3CC[C@@H]12 [Example 185, 2-[(3aR,9bR)-7-{[2-fluoro-6-(trifluoromethyl)phenyl]methoxy}-9b-(4-fluorobenzenesulfonyl)-1H,2H,3H,3aH,4H,5H,9bH-benzo[e]indol-3-yl]-2-oxoethane-1-sulfonamide]	90
CS(=O)(=O)CC(=O)N1CC[C@@]2(S(=O)(=O)c3ccc(F)cc3)c3ccc(OCc4c(F)cccc4C(F)(F)F)cc3CC[C@@H]12 [Example 188, 1-[(3aR,9bR)-7-{[2-fluoro-6-(trifluoromethyl)phenyl]methoxy}-9b-(4-fluorobenzenesulfonyl)-1H,2H,3H,3aH,4H,5H,9bH-benzo[e]indol-3-yl]-2-methanesulfonylethan-1-one]	75
CC(=O)N1CCC(C(=O)N2CC[C@@]3(S(=O)(=O)c4ccc(F)cc4)c4ccc(OCc5c(Cl)cccc5Cl)cc4CC[C@@H]23)CC1 [Example 189, 1-{4-[(3aR,9bR)-7-[(2,6-dichlorophenyl)methoxy] -9b-(4-fluorobenzenesulfonyl)-1H,2H,3H,3aH,4H,5H,9bH-benzo[e]indole-3-carbonyl]piperidin-1-yl}ethan-1-one]	41
CS(=O)(=O)CC(=O)N1CC[C@@]2(S(=O)(=O)c3ccc(F)cc3)c3ccc(OCc4c(Cl)cccc4Cl)cc3CC[C@@H]12 [Example 191, 1-[(3 aR,9bR)-7-[(2,6-dichlorophenyl)methoxy] -9b-(4-fluorobenzenesulfonyl)-1H,2H,3H,3aH,4H,5H,9bH-benzo[e]indol-3-yl]-2-methanesulfonylethan-1-one]	134
O=C(O)[C@H]1CC[C@H](C(=O)N2CC[C@@]3(S(=O)(=O)c4ccc(F)cc4)c4ccc(OCc5ccc(F)cc5Cl)cc4CC[C@@H]23)CC1 [Example 193, (1r,4r)-4-[(3aR,9bR)-7-[(2-chloro-4-fluorophenyl)methoxy]-9b-(4-fluorobenzenesulfonyl)-1H,2H,3H,3aH,4H,5H,9bH-benzo[e]indole-3-carbonyl]cyclohexane-1-carboxylic acid]	46
NS(=O)(=O)CC(=O)N1CC[C@@]2(S(=O)(=O)c3ccc(F)cc3)c3ccc(OCc4cc(F)ccc4Cl)cc3CC[C@@H]12 [Example 194, 2-[(3aR,9bR)-7-[(2-chloro-5-fluorophenyl)methoxy]-9b-(4-fluorobenzenesulfonyl)-1H,2H,3H,3aH,4H,5H,9bH-benzo[e]indol-3-yl]-2-oxoethane-1-sulfonamide]	189
CS(=O)(=O)CC(=O)N1CC[C@@]2(S(=O)(=O)c3ccc(F)cc3)c3ccc(OCc4cc(F)ccc4Cl)cc3CC[C@@H]12 [Example 195, 1-[(3 aR,9bR)-7-[(2-chloro-5-fluorophenyl)methoxy]-9b-(4-fluorobenzenesulfonyl)-1H,2H,3H,3aH,4H,5H,9bH-benzo[e]indol-3-yl]-2-methanesulfonylethan-1-one]	158
O=C(CN1CCS(=O)(=O)CC1)N1CC[C@@]2(S(=O)(=O)c3ccc(F)cc3)c3ccc(OCc4cc(Cl)ccc4Cl)cc3CC[C@@H]12 [Example 197, 4-{2-[(3aR,9bR)-7-[(2,5-dichlorophenyl)methoxy] -9b-(4-fluorobenzenesulfonyl)-1H,2H,3H,3aH,4H,5H,9bH-benzo[e]indol-3-yl]-2-oxoethyl}-1λ^6-thiomorpholine-1,1-dione]	49
O=C(C1CCS(=O)(=O)C1)N1CC[C@@]2(S(=O)(=O)c3ccc(F)cc3)c3ccc(OCc4ccc(F)cc4Cl)cc3CC[C@@H]12 (stereo partly drawn) [Example 201, 3-[(3aR,9bR)-7-[(2-chloro-4-fluorophenyl)methoxy]-9b-(4-fluorobenzenesulfonyl)-1H,2H,3H,3aH,4H,5H,9bH-benzo[e]indole-3-carbonyl]-1λ^6-thiolane-1,1-dione]	40

The next compounds have a lower EC50 than those just listed; values first:

EC50 [nM]	Structure (SMILES)
37	CC(=O)N1CCC(C(=O)N2CC[C@@]3(S(=O)(=O)c4ccc(F)cc4)c4ccc(OCc5cc(Cl)ccc5Cl)cc4CC[C@@H]23)CC1 [Example 196, 1-{4-[(3aR,9bR)-7-[(2,5-dichlorophenyl)methoxy] -9b-(4-fluorobenzenesulfonyl)-1H,2H,3H,3aH,4H,5H,9bH-benzo[e]indole-3-carbonyl]piperidin-1-yl}ethan-1-one]
21	O=C(CN1CCS(=O)(=O)CC1)N1CC[C@@]2(S(=O)(=O)c3ccc(F)cc3)c3ccc(OCc4cc(F)ccc4Cl)cc3CC[C@@H]12 [Example 180, 4-{2-[(3aR,9bR)-7-[(2-chloro-5-fluorophenyl)methoxy]-9b-(4-fluorobenzenesulfonyl)-1H,2H,3H,3aH,4H,5H,9bH-benzo[e]indol-3-yl]-2-oxoethyl}-1λ^6-thiomorpholine-1,1-dione]
19	NC(=O)N1CCC(C(=O)N2CC[C@@]3(S(=O)(=O)c4ccc(F)cc4)c4ccc(OCc5ccc(F)cc5Cl)cc4CC[C@@H]23)CC1 [Example 198, 4-[(3aR,9bR)-7-[(2-chloro-4-fluorophenyl)methoxy]-9b-(4-fluorobenzenesulfonyl)-1H,2H,3H,3aH,4H,5H,9bH-benzo[e]indole-3-carbonyl] piperidine-1-carboxamide]
16	CC(=O)N1CCC(C(=O)N2CC[C@@]3(S(=O)(=O)c4ccc(F)cc4)c4ccc(OCc5c(F)cccc5C(F)(F)F)cc4CC[C@@H]23)CC1 [Example 182, 1-{4-[(3aR,9bR)-7-{[2-fluoro-6-(trifluoromethyl)phenyl]methoxy}-9b-(4-fluorobenzenesulfonyl)-1H,2H,3H,3aH,4H,5H,9bH-benzo[e]indole-3-carbonyl]piperidin-1-yl}ethan-1-one]
15	NC(=O)N1CCC(C(=O)N2CC[C@@]3(S(=O)(=O)c4ccc(F)cc4)c4ccc(OCc5cc(Cl)ccc5Cl)cc4CC[C@@H]23)CC1 [Example 202, 4-[(3aR,9bR)-7-[(2,5-dichlorophenyl)methoxy]-9b-(4-fluorobenzenesulfonyl)-1H,2H,3H,3aH,4H,5H,9bH-benzo[e]indole-3-carbony1]piperidine-1-carboxamide]
12	NC(=O)N1CCC(C(=O)N2CC[C@@]3(S(=O)(=O)c4ccc(F)cc4)c4ccc(OCc5cc(F)ccc5Cl)cc4CC[C@@H]23)CC1 [Example 179, 4-[(3aR,9bR)-7-[(2-chloro-5-fluorophenyl)methoxy]-9b-(4-fluorobenzenesulfonyl)-1H,2H,3H,3aH,4H,5H,9bH-benzo[e]indole-3-carbonyl]piperidine-1-carboxamide]
10	O=C(C1CCS(=O)(=O)C1)N1CC[C@@]2(S(=O)(=O)c3ccc(F)cc3)c3ccc(OCc4c(F)cccc4C(F)(F)F)cc3CC[C@@H]12 (stereo partly drawn) [Example 187, 3-[(3aR,9bR)-7-{[2-fluoro-6-(trifluoromethyl)phenyl]methoxy}-9b-(4-fluorobenzenesulfonyl)-1H,2H,3H,3aH,4H,5H,9bH-benzo[e]indole-3-carbonyl]-1λ^6-thiolane-1,1-dione]
8.8	O=C(C1CCS(=O)(=O)CC1)N1CC[C@@]2(S(=O)(=O)c3ccc(F)cc3)c3ccc(OCc4cc(F)ccc4Cl)cc3CC[C@@H]12 [Example 181, 4-[(3aR,9bR)-7-[(2-chloro-5-fluorophenyl)methoxy]-9b-(4-fluorobenzenesulfonyl)-1H,2H,3H,3aH,4H,5H,9bH-benzo[e]indole-3-carbonyl]-1λ^6-thiane-1,1-dione]
8.7	CS(=O)(=O)N1CCC(C(=O)N2CC[C@@]3(S(=O)(=O)c4ccc(F)cc4)c4ccc(OCc5c(Cl)cccc5Cl)cc4CC[C@@H]23)CC1 [Example 190, 4-[(3aR,9bR)-7-[(2,6-dichlorophenyl)methoxy]-9b-(4-fluorobenzenesulfonyl)-1H,2H,3H,3aH,4H,5H,9bH-benzo[e]indole-3-carbonyl]-1-methanesulfonylpiperidine]
8.7	O=C(C1CCS(=O)(=O)C1)N1CC[C@@]2(S(=O)(=O)c3ccc(F)cc3)c3ccc(OCc4cc(Cl)ccc4Cl)cc3CC[C@@H]12 (stereo partly drawn) [Example 199, 3-[(3aR,9bR)-7-[(2,5-dichlorophenyl)methoxy]-9b-(4-fluorobenzenesulfonyl)-1H,2H,3H,3aH,4H,5H,9bH-benzo[e]indole-3-carbonyl]-1λ^6-thiolane-1,1-dione]
7.5	O=C(C1CCS(=O)(=O)CC1)N1CC[C@@]2(S(=O)(=O)c3ccc(F)cc3)c3ccc(OCc4cc(Cl)ccc4Cl)cc3CC[C@@H]12 [Example 200, 4-[(3aR,9bR)-7-[(2,5-dichlorophenyl)methoxy]-9b-(4-fluorobenzenesulfonyl)-1H,2H,3H,3aH,4H,5H,9bH-benzo[e]indole-3-carbonyl]-1λ^6-thiane-1,1-dione]
